Values after ≈ are worked out from the molar mass of the structure shown.
Tests used:
Type in all cases: functional
Pseudomonas aeruginosa [1] = test: Antimicrobial activity against Pseudomonas aeruginosa ATCC 19429 incubated for 18 hrs by CLSI-based microbroth dilution method; conditions: ATCC 19429, 18 h
Staphylococcus aureus [2] = test: Antimicrobial activity against Staphylococcus aureus ATCC 25923 incubated for 18 hrs by CLSI-based microbroth dilution method; conditions: ATCC 25923, 18 h
Escherichia coli [3] = test: Antibacterial activity against Escherichia coli incubated for 18 hrs by CLSI-based broth microdilution method
[4] = test system: Mycobacterium tuberculosis; test: Antimicrobial activity against Mycobacterium tuberculosis H37Rv ATCC 27294 incubated for 7 days by microplate Alamar blue assay; conditions: H37Rv ATCC 27294, 168 h
[5] = test system: Staphylococcus epidermidis; test: Antimicrobial activity against methicillin-susceptible Staphylococcus epidermidis ATCC 12228 incubated for 18 to 24 hrs by two-fold serial dilution method
Staphylococcus aureus [6] = test: Antimicrobial activity against methicillin-susceptible Staphylococcus aureus ATCC 29213 incubated for 18 to 24 hrs by two-fold serial dilution method
Staphylococcus aureus [7] = test: Antimicrobial activity against methicillin-resistant Staphylococcus aureus ATCC 33591 incubated for 18 to 24 hrs by two-fold serial dilution method
Enterococcus faecium = test: Antimicrobial activity against Enterococcus faecium ATCC 700221 incubated for 18 to 24 hrs by two-fold serial dilution method
Streptococcus pneumoniae = test: Antibacterial activity against Streptococcus pneumoniae ATCC 49619 incubated for 24 hrs; conditions: ATCC 49619, 24 h
Staphylococcus aureus [8] = test: Antimicrobial activity against Staphylococcus aureus ATCC 29213 incubated for 24 hrs; conditions: ATCC 29213, 24 h
Pseudomonas aeruginosa [9] = test: Antimicrobial activity against Pseudomonas aeruginosa ATCC 27853 incubated for 24 hrs; conditions: ATCC 27853, 24 h
Escherichia coli [10] = test: Antimicrobial activity against Escherichia coli ATCC 25922 incubated for 24 hrs; conditions: ATCC 25922, 24 h

SMILES | MIC (Pseudomonas aeruginosa [1]) [µg/mL] | MIC (Staphylococcus aureus [2]) [µg/mL] | MIC (Escherichia coli [3]) [µg/mL] | MIC (Streptococcus pneumoniae) [µg/mL] | MIC (Staphylococcus aureus [8]) [µg/mL] | MIC (Pseudomonas aeruginosa [9]) [µg/mL] | MIC (Escherichia coli [10]) [µg/mL] | other results
O=C(O)c1cn(C2CC2)c2cc(N3CCCC3)c(F)cc2c1=O | > 128 | 0.0625 (≈ 0.198 µM) |  |  |  |  |  | 
CCn1cc(C(=O)O)c(=O)c2cc(F)c(N(C)C)cc21 | 64 (≈ 230 µM) | 0.5 (≈ 1.8 µM) | 2 (≈ 7.19 µM) |  |  |  |  | 
O=C(O)c1cn(C2CC2)c2cc(N3CCCCC3)c(F)cc2c1=O | 32 (≈ 96.9 µM) | 0.25 (≈ 0.757 µM) |  |  |  |  |  | 
O=C(O)c1cn(C2CC2)c2cc(N3CCOCC3)c(F)cc2c1=O | 8 (≈ 24.1 µM) | 125 (≈ 376 µM) |  |  |  |  |  | 
CN1CCN(c2cc3c(cc2F)c(=O)c(C(=O)O)cn3C2CC2)CC1 | 1 (≈ 2.9 µM) | 0.25 (≈ 0.724 µM) | 0.0078 (≈ 0.0226 µM) |  |  |  |  | 
COc1ccc(C(=O)N/N=C(\C)CN2CCN(c3c(F)cc4c(=O)c(C(=O)O)cn(C5CC5)c4c3OC)CC2)cc1 |  |  |  |  |  |  |  | MIC [4]: 0.214 µM (≈ 0.121 µg/mL); MIC [5]: 0.125 µg/mL (≈ 0.221 µM); MIC (Staphylococcus aureus [6]): 0.125 µg/mL (≈ 0.221 µM); MIC (Staphylococcus aureus [7]): 0.25 µg/mL (≈ 0.442 µM); MIC (Enterococcus faecium): 64 µg/mL (≈ 113 µM)
CCn1cc(C(=O)O)c(=O)c2cc(F)c(N3CCN(C/C(=N/N)c4ccc([N+](=O)[O-])cc4)CC3)cc21 |  |  |  | 25 (≈ 50.4 µM) | 12.5 (≈ 25.2 µM) | 50 (≈ 101 µM) | 12.5 (≈ 25.2 µM) | 
COc1c(N2CCN(C/C(C)=N/NC(=O)c3ccc(Cl)cc3)CC2)c(F)cc2c(=O)c(C(=O)O)cn(C3CC3)c12 |  |  |  |  |  |  |  | MIC [4]: 0.272 µM (≈ 0.155 µg/mL); MIC [5]: 0.125 µg/mL (≈ 0.219 µM); MIC (Staphylococcus aureus [6]): 0.125 µg/mL (≈ 0.219 µM); MIC (Staphylococcus aureus [7]): 0.125 µg/mL (≈ 0.219 µM); MIC (Enterococcus faecium): 32 µg/mL (≈ 56.1 µM)
CCn1cc(C(=O)O)c(=O)c2cc(F)c(N3CCN(C/C(=N/OC)c4ccccc4)CC3)cc21 |  |  |  | > 100 | 50 (≈ 107 µM) | > 100 | 50 (≈ 107 µM) | 
CCn1cc(C(=O)O)c(=O)c2cc(F)c(N3CCN(C/C(=N\Nc4ccccc4)c4ccccc4)CC3)cc21 |  |  |  | 100 (≈ 190 µM) | 50 (≈ 94.8 µM) | 100 (≈ 190 µM) | 25 (≈ 47.4 µM) | 
CCn1cc(C(=O)O)c(=O)c2cc(F)c(N3CCN(C/C(=N\N)c4ccccc4)CC3)cc21 |  |  |  | 50 (≈ 111 µM) | 25 (≈ 55.4 µM) | 100 (≈ 221 µM) | 12.5 (≈ 27.7 µM) | 
Cl.O=C(O)c1cn(Cc2ccccc2)c2cc(N3CCNCC3)c(F)cc2c1=O | 2 | 2 | 1 |  |  |  |  | 
CCn1cc(C(=O)O)c(=O)c2cc(F)c(N3CCNCC3)cc21.Cl | 1 | 2 |  |  |  |  |  | 
CCCCN(CCCC)c1cc2c(cc1F)c(=O)c(C(=O)O)cn2CC | > 128 | 8 (≈ 22.1 µM) | > 128 |  |  |  |  | 
CCCCN(CCCC)c1cc2c(cc1F)c(=O)c(C(=O)O)cn2C1CC1 | > 128 | 8 (≈ 21.4 µM) | > 128 |  |  |  |  | 
CCn1cc(C(=O)O)c(=O)c2cc(F)c(N3CCN(C/C(=N/OC)c4ccc(C)cc4)CC3)cc21 |  |  |  | 100 (≈ 208 µM) | 25 (≈ 52 µM) | > 100 | 25 (≈ 52 µM) | 
CC(C)n1cc(C(=O)O)c(=O)c2cc(F)c(N3CCNCC3)cc21.Cl | 4 | 8 | 0.5 |  |  |  |  | 
CCN(CC)c1cc2c(cc1F)c(=O)c(C(=O)O)cn2CC | > 128 | 4 (≈ 13.1 µM) | 8 (≈ 26.1 µM) |  |  |  |  | 
COc1c(N2CCN(C/C(C)=N/NC(=O)c3ccccc3)CC2)c(F)cc2c(=O)c(C(=O)O)cn(C3CC3)c12 |  |  |  |  |  |  |  | MIC [4]: 0.226 µM (≈ 0.121 µg/mL); MIC [5]: 0.125 µg/mL (≈ 0.233 µM); MIC (Staphylococcus aureus [6]): 0.125 µg/mL (≈ 0.233 µM); MIC (Staphylococcus aureus [7]): 0.125 µg/mL (≈ 0.233 µM); MIC (Enterococcus faecium): > 128 µg/mL
CCn1cc(C(=O)O)c(=O)c2cc(F)c(N3CCN(C/C(=N/Nc4ccccc4)c4ccc(OC)cc4)CC3)cc21 |  |  |  | 100 (≈ 179 µM) | 25 (≈ 44.8 µM) | 100 (≈ 179 µM) | 25 (≈ 44.8 µM) | 
CCn1cc(C(=O)O)c(=O)c2cc(F)c(N3CCN(C/C(=N/O)c4ccc([N+](=O)[O-])cc4)CC3)cc21 |  |  |  | 50 (≈ 101 µM) | 6.25 (≈ 12.6 µM) | 100 (≈ 201 µM) | 12.5 (≈ 25.1 µM) | 
CN(C)c1cc2c(cc1F)c(=O)c(C(=O)O)cn2C1CC1 | 8 (≈ 27.6 µM) | 125 (≈ 431 µM) |  |  |  |  |  | 
CCCCCCn1cc(C(=O)O)c(=O)c2cc(F)c(N3CCNCC3)cc21.Cl | > 128 | > 128 | 64 |  |  |  |  | 
Cc1ccc(/C(CN2CCN(c3cc4c(cc3F)c(=O)c(C(=O)O)cn4C3CC3)CC2)=N\NC(N)=O)cc1 |  |  |  | 25 (≈ 48 µM) | 6.25 (≈ 12 µM) | 50 (≈ 96 µM) | 12.5 (≈ 24 µM) | 
Cl.NCCNc1cc2c(cc1F)c(=O)c(C(=O)O)cn2C1CC1 | 4 | 16 | 1 |  |  |  |  | 

Reference: ChEMBL document CHEMBL4602605, “Fluoroquinolones structural and medicinal developments (2013-2018): Where are we now?” (Bioorg Med Chem, 2019)
